Data on 1 molecule can be found in patent USRE41151E1, “Protected forms of pharmacologically active agents and uses thereof” (Medinox, Inc., priority 2000, dated 2010).

The subject of one data set is Sprague-Dawley rats. In words: Rat carrageenan-induced hindlimb edema model, paw volume increase. The data set is classed as in vivo. The note with it: for paw volume increase, 4 Hours / paw volume increase, 5 Hours: one hour before carrageenan. The method, then: Efficacy of NSAIDs in acute inflammation can be estimated by using intraplanar injection of carrageenan in the rat. Sprague-Dawley rats (200-250 g male) are injected intradermally in the footpad with 50 μl of a 1% carrageenan solution in PBS. Swelling of the injected paw is measured 3 & 4 hours later, using a plethysmometer.
In general terms: In the carrageenan paw model, swelling and tenderness develop within hours.

The nature of data set [1]: Plasma pharmacokinetics of naproxen after oral administration in rats. Type of data set: in vivo, rat. The note with it: 2 mg/kg (amount of naproxen in dose).
Protocol: The carotid artery of Sprague-Dawley rat (250-350 g, male) was catheterized at least one day before drug administration and flushed with 30% polyvinyl pyrrolidone (PVP) (400 U/mL of heparin) to maintain patency. […] After centrifugation (13,000 rpm, 10 min, 4° C.), the plasma samples were collected and analyzed in the same day.
Aliquot of plasma sample (100 μL) was mixed with 200 μL of acetonitrile. After vortexing and centrifugation (13,000 rpm, 10 min, 4° C.), 200 μL of supernatant was removed and added to 300 μL of a 58:42 mixture of 50 mM phosphate buffer (pH 5.0) and acetonitrile. Following vortexing and centrifugation, 25 μL of supernatant was removed and analyzed by HPLC with a UV detection system.
The average plasma concentration at each time point was calculated and utilized in a pharmacokinetic analysis. Non-compartmental pharmacokinetic analysis was carried out using WinNolin (Pharsight, Mountainview, Calif.) to calculate the maximum concentration (Cmax), time to maximum concentration (Tmax), area under the curve from zero to the last time point (AUClast), the area under the curve from zero to infinite time (AUCinf), and the terminal phase half life (Beta-t1/2).

In the case of `COc1ccc2cc([C@H](C)C(=O)O)ccc2c1` [Naproxen], the “paw volume increase, 4 Hours” value with Sprague-Dawley rats (naproxen 1 mg/kg oral) is 0.63 ± 0.07; in the data set on Sprague-Dawley rats (naproxen 10 mg/kg oral), 0.32 ± 0.05. Besides, the “paw volume increase, 5 Hours” value in the data set with Sprague-Dawley rats (naproxen 1 mg/kg oral) was determined as 0.75 ± 0.08; in the data set on Sprague-Dawley rats (naproxen 10 mg/kg oral), 0.39 ± 0.07. The reduction in swelling result with Sprague-Dawley rats (oral 10 mg/kg one hour before carrageenan, at both time points) is reported as “approximately 50%”. The molecule further came in with an AUFINF in data set [1] of 55 ± 7 μg * ht/mL.
